Earlier results on 1 molecule are cited in patent publication US12697345B2, “Microparticles containing stabilized CBD oil, and methods for the production thereof” (priority 2021, dated 2026).

The structures appear in SMILES notation.

For data set [1] the following is noted: 600 mg oral CBD, healthy male volunteers.
The conditions of data set [2]: estimated.
For data set [3] the following is noted: aerosolized.

In the case of `C=C(C)[C@@H]1CCC(C)=CC1c1c(O)cc(CCCCC)cc1O` (stereo partly drawn) [CBD, 2-[(6R)-3-methyl-6-prop-1-en-2-ylcyclohex-2-en-1-yl]-5-pentylbenzene-1,3-diol], the “mean±SD whole blood level of CBD at 1 hour” value in data set [1] (1 h) is given as 0.36 (0.64) ng/mL. The “mean±SD whole blood level of CBD at 2 hours” value in data set [1] (2 h) is reported as 1.62 (2.98) ng/mL. Also, the “mean±SD whole blood level of CBD at 3 hours” value in data set [1] (3 h) is listed as 3.4 (6.42) ng/mL. For the same molecule, in data set [2], the “Bioavailability from oral delivery” value is 6%. Further, the “Time to peak plasma concentrations” value in data set [3] was 5 to 10 min.
